Source: ChEMBL document CHEMBL5236644, “Multitargeting approaches to cognitive impairment: Synthesis of aryl-alkylpiperazines and assessment at cholinesterases, histamine H3 and dopamine D3 receptors” (Bioorg Med Chem, 2023)

Columns and labels:
Histamine H3 receptor [1] = target: T1, Histamine H3 receptor (Homo sapiens, UniProt Q9Y5N1); experiment: Inhibition of human H3 receptor at 10 uM incubated for 90 mins by scintillation counting method relative to control
D(3) dopamine receptor [2] = target: T2, D(3) dopamine receptor (Homo sapiens, UniProt P35462); experiment: Inhibition of human D3 receptor expressed in CHO cells at 10 uM by scintillation counting method relative to control; type: cell-based
[3] = target: Cholinesterase (Equus caballus) (UniProt P81908); experiment: Inhibition of equine BChE at 100 uM using acetylthiocholine chloride as substrate preincubated for 15 mins followed by substrate addition and measured after 30 mins by DTNB reagent based Ellman's method relative to control; conditions: time 45.0 min
Acetylcholinesterase = Acetylcholinesterase (Electrophorus electricus, UniProt O42275); experiment: Inhibition of electrical eel AChE using acetylthiocholine chloride as substrate preincubated for 15 mins followed by substrate addition and measured after 30 mins by DTNB reagent based Ellman's method
Cholinesterase = Cholinesterase (Equus caballus, UniProt P81908); experiment: Inhibition of equine BChE using acetylthiocholine chloride as substrate preincubated for 15 mins followed by substrate addition and measured after 30 mins by DTNB reagent based Ellman's method
Histamine H3 receptor [4] = target: T1, Histamine H3 receptor; experiment: Binding affinity to human H3 receptor assessed as inhibition constant incubated for 90 mins by scintillation counting method
D(3) dopamine receptor [5] = target: T2, D(3) dopamine receptor; experiment: Binding affinity to human D3 receptor expressed in CHO cells assessed as inhibition constant by scintillation counting method; type: cell-based
Histamine H3 receptor [6] = target: T1, Histamine H3 receptor; experiment: Inhibition of human H3 receptor at 1 uM incubated for 90 mins by scintillation counting method relative to control
D(3) dopamine receptor [7] = target: T2, D(3) dopamine receptor; experiment: Inhibition of human D3 receptor expressed in CHO cells at 1 uM by scintillation counting method relative to control; type: cell-based
D(3) dopamine receptor [8] = target: T2, D(3) dopamine receptor; experiment: Inhibition of human D3 receptor expressed in CHO cells assessed as inhibition constant by scintillation counting method; type: cell-based
Histamine H3 receptor [9] = target: T1, Histamine H3 receptor; experiment: Inhibition of human H3 receptor incubated for 90 mins by scintillation counting method relative to control

T2 sequence (P35462 whole entry): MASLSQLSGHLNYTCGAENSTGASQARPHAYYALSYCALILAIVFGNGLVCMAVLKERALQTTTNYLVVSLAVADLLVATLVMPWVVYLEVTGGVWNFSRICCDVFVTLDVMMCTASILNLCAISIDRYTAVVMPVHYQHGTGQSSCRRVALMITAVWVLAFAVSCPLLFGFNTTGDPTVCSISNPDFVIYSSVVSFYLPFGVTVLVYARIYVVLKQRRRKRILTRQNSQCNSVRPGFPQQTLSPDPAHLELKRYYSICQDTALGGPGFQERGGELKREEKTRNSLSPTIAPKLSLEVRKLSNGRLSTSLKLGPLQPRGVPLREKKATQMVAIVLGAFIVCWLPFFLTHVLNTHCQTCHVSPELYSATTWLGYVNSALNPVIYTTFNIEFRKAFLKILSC
Chain of Acetylcholinesterase (O42275 whole entry): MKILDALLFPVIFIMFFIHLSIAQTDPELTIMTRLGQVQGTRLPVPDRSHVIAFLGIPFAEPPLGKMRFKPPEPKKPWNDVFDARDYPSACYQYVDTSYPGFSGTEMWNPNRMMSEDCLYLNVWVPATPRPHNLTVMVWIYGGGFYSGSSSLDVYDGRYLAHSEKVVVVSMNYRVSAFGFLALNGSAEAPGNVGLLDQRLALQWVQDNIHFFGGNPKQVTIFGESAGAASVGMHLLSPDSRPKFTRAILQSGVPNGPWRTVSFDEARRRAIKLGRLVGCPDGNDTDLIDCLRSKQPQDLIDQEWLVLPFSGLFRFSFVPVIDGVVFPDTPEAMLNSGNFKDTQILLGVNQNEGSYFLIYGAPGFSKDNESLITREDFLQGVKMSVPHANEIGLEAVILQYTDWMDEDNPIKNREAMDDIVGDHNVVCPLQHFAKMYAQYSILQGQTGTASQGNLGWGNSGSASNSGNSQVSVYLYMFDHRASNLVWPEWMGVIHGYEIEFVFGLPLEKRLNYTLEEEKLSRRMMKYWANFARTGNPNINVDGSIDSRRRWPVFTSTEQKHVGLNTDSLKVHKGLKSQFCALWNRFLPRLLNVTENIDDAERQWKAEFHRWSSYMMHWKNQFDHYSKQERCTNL
Chain of Cholinesterase (Equus caballus) (P81908 whole entry): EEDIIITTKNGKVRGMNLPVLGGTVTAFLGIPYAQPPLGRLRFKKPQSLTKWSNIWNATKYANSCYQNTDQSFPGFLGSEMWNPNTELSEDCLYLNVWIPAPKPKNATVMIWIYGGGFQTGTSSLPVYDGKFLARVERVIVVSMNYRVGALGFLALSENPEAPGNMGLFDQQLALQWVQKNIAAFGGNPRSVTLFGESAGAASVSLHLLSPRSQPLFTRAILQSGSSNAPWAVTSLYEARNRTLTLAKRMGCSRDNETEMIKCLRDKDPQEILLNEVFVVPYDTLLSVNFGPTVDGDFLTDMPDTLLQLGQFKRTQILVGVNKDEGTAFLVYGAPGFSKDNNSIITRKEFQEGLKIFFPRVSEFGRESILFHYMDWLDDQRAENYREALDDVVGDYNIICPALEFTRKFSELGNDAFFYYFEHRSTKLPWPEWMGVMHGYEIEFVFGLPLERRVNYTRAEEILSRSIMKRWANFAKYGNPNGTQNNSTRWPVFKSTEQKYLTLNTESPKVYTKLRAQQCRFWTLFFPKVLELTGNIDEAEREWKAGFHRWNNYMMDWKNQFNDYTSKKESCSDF
Chain of Cholinesterase (P81908 whole entry): as above
T1 sequence (Q9Y5N1 whole entry): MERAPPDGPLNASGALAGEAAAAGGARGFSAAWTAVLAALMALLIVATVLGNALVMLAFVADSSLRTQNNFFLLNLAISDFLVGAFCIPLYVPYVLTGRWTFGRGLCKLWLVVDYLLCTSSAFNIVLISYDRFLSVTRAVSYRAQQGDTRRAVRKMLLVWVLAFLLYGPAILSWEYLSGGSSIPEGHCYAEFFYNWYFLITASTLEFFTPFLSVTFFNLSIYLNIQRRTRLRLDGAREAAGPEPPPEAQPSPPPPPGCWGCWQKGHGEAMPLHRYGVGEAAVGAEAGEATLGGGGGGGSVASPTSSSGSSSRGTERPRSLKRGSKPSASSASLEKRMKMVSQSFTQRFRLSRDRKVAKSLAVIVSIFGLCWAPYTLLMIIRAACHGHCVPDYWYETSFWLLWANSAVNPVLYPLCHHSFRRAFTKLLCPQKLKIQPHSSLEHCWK

Row | SMILES | inhibition (Histamine H3 receptor [1]) [%] | inhibition (D(3) dopamine receptor [2]) [%] | inhibition [3] [%] | IC50 (Cholinesterase) [µM] | Ki (Histamine H3 receptor [4]) [µM] | Ki (D(3) dopamine receptor [5]) [µM] | also measured
1 | c1ccc(N2CCN(CCOc3cccc4ccccc34)CC2)cc1 | 39.8 | 34.5 | 26 |  |  |  | 
2 | O=C(OCCN1CCN(c2ccccc2)CC1)c1cccc2ccccc12 | 71.3 | 52.8 | 24.1 |  |  |  | 
3 | CN1CCN(CCCOC(=O)c2ccc3ccccc3c2)CC1 | 96.3 | 77.7 | 85.1 | 43.7 | 1.1 | 0.0031 | IC50 (Acetylcholinesterase): 97.8 µM
4 | CC(C)N1CCN(CCCCOc2ccc3c(c2)NC(=O)CC3)CC1 |  |  |  | 16.7 |  |  | IC50 (Acetylcholinesterase): 1.6 µM
5 | CN1CCN(CCCOC(=O)c2cc3ccccc3o2)CC1 | 82.3 | 9 | 31.7 |  | 3.3 | > 0.01 | 
6 | O=C(OCCCN1CCN(c2ccncc2)CC1)c1cc2ccccc2o1 |  |  | 49.9 | 97.7 | 0.27 | > 0.01 | IC50 (Acetylcholinesterase): 57.2 µM; inhibition (Histamine H3 receptor [6]): 88.8%; inhibition (D(3) dopamine receptor [7]): 18%
7 | O=C(OCCCN1CCN(c2ccccc2)CC1)c1cc2ccccc2o1 |  |  | 46.8 |  |  |  | 
8 | c1ccc(N2CCN(CCCOc3ccc4ccccc4c3)CC2)cc1 |  |  | 65.7 | 53.7 | > 10 | 0.00034 | inhibition (Histamine H3 receptor [6]): 36.8%; inhibition (D(3) dopamine receptor [7]): 80.5%
9 | c1ccc2c(OCCN3CCN(c4ccncc4)CC3)cccc2c1 |  |  | 65.4 | 40.7 |  |  | IC50 (Acetylcholinesterase): 53.7 µM; inhibition (Histamine H3 receptor [6]): 54%; inhibition (D(3) dopamine receptor [7]): 37.7%
10 | CN(C)C(=O)Oc1cccc([N+](C)(C)C)c1 [NEOSTIGMINE] |  |  | > 95 | 0.16 |  |  | 
11 | O=C(NCCCCN1CCN(c2ccccc2)CC1)c1ccc2ccccc2c1 |  |  |  |  |  |  | Ki (D(3) dopamine receptor [8]): 0.00092 µM
12 | O=C(OCCCN1CCN(c2ccccc2)CC1)c1ccc2ccccc2c1 | 40.8 | 65.3 | 16.6 |  |  |  | 
13 | Clc1ccc(CCCOCCCN2CCCCC2)cc1 |  |  |  |  |  |  | inhibition (Histamine H3 receptor [9]): 99.8%
14 | CN1CCN(CCCOc2cccc3ccccc23)CC1 | 70 | 47.8 | 60.2 | 78.5 |  |  | 
15 | c1ccc(N2CCN(CCCOc3cccc4ccccc34)CC2)cc1 |  |  | 22.7 |  |  |  | 
16 | CN1CCN(CCOc2cccc3ccccc23)CC1 | 21.3 | 33.5 | 64.9 | 58.9 |  |  | 
17 | O=C(OCCCN1CCN(c2ccccc2)CC1)c1cccc2ccccc12 |  |  | < 10 |  |  |  | 
18 | CN1CCN(CCOC(=O)c2ccc3ccccc3c2)CC1 | 78.2 | 53.7 | 74.8 | 57.5 | 2.2 | > 0.01 | 
19 | CN1CCN(CCCOC(=O)c2cccc3ccccc23)CC1 | 83.8 | 71.5 | 50.6 |  | 3.7 | > 0.01 | 
20 | CN1CCN(CCOc2ccc3ccccc3c2)CC1 | 39.3 | 15.2 | 48.4 |  |  |  | 
21 | CN1CCN(CCOC(=O)c2cccc3ccccc23)CC1 | 69 | 49.7 | 38.3 |  |  |  | 
22 | O=C(OCCN1CCN(c2ccccc2)CC1)c1ccc2ccccc2c1 | 61.5 | 32.8 | 36.5 |  |  |  | 
23 | CN1CCN(CCCOc2ccc3ccccc3c2)CC1 | 80.5 | 22.8 | 70 | 26.3 | 2.8 | 0.0007 | 
24 | c1ccc(N2CCN(CCOc3ccc4ccccc4c3)CC2)cc1 |  |  | 17.5 |  |  |  | inhibition (Histamine H3 receptor [6]): 23.3%; inhibition (D(3) dopamine receptor [7]): 45%
25 | O=C(NCCCN1CCN(c2ccncc2)CC1)c1cc2ccccc2o1 |  |  | 54.5 | 85.1 | 0.91 | > 0.01 | inhibition (Histamine H3 receptor [6]): 80.5%; inhibition (D(3) dopamine receptor [7]): 23.5%
